Converted amounts (≈) assume the structure as drawn.
Key:
MSSA = assay: Antibacterial assay, broth microdilution MIC (Test A); assay type: cell-based; conditions: Staphylococcus aureus, MIC values may be lower as solubility and aggregate formation may reduce observed activity
Description: (§1) Antibacterial activity can be determined as per Clinical and Laboratory Standards Institute (CLSI) guidelines using a broth microdilution assay in which log-phase bacteria are grown at 37° C. in appropriate medium containing two-fold serial dilutions of a compound to yield final concentrations ranging from 256 to 0.06 μg/mL. For determination of minimal inhibitory concentration (MIC) values, bacterial growth is monitored after 24 to 48 hours by measuring optical density at 600 nm.

MRSA = assay: as above; assay type: cell-based; conditions: Staphylococcus aureus, MIC values may be lower as solubility and aggregate formation may reduce observed activity
Description: as §1

[1] = test system: S. aureus ATCC 19636 (MSSA); assay: In vivo efficacy, mouse peritonitis model of systemic infection (Test D), MSSA; conditions: mice
Description: Antistaphylococcal efficacy in vivo was assessed in a mouse peritonitis model of systemic infection with S. aureus ATCC 19636 (MSSA) or ATCC 43300 (MRSA). These studies were conducted in full compliance with the standards established by the US National Research Council's Guide for the Care and Use of Laboratory Animals, and were approved by the Institutional Animal Care and Use Committee (IACUC) of Rutgers University. Groups of 4-6 female Swiss-Webster mice with an average weight of 25 g were infected intraperitoneally with a lethal inoculum of each bacterial strain in saline. The inoculum of S. aureus ATCC 43300 contained 1.0×10^8 CFUs/mL of bacteria, while the inoculum of S. aureus ATCC 19636 contained 0.8×10^7 CFUs/mL of bacteria. All the inocula also contained porcine mucin (Sigma-Aldrich, Co.) at a (w/v) percentage of 1.5% (in ATCC 19636 inocula) or 5% (in the ATCC 43300 inoculum). The differing compositions of the inocula of these S. aureus strains were selected based on the virulence of each strain, with MSSA ATCC 19636 being the more virulent strain and MRSA ATCC 43300 being the less virulent strain.
All compound and vehicle intravenous (i.v.) administrations were by tail vein injection, with 17 being formulated at 2.0 mg/mL and 44 being formulated at both 2.0 and 3.0 mg/ml in 10 mM citrate (pH 2.6).
In the MSSA ATCC 19636 experiments, the first dose of compound was administered 10 minutes after infection, with subsequent doses being administered at 12-minute intervals thereafter unless otherwise noted. In the MRSA studies, the first dose of compound was administered one hour after infection, with subsequent doses being administered at 12-minute intervals thereafter unless otherwise indicated.
The body temperatures of all mice were monitored for a period of 5 days after infection. Body temperatures were recorded at the Xiphoid process using a noninvasive infrared thermometer (Braintree Scientific, Inc., Braintree, MA). Infected mice with body temperatures ≤28.9° C. were viewed as being unable to recover from the infection and were euthanized.

[2] = test system: S. aureus ATCC 43300 (MRSA); assay: In vivo efficacy, mouse peritonitis model of systemic infection (Test D), MRSA; conditions: mice, p.o., total dose 4.8 mg/mouse
[3] = i.v., 1x, total dose 0.6 mg/mouse, first dose immediately prior to infection
[4] = i.v., 2x, total dose 1.2 mg/mouse, first dose immediately prior to infection, subsequent doses 15 minutes following
[5] = p.o., 1x, total dose 0.8 mg/mouse, first dose 5 minutes prior to infection
[6] = p.o., 2x, total dose 1.6 mg/mouse, first dose 5 minutes prior to infection, subsequent doses 15 minutes apart
[7] = p.o., 4x, total dose 3.2 mg/mouse, first dose 5 minutes prior to infection, subsequent doses 15 minutes apart
[8] = 6x (no footnote: first dose one hour after infection, 12-minute intervals)
[9] = 6x, first dose 5 minutes prior to infection, subsequent doses 12 minutes apart
[10] = 6x, first dose 10 minutes post-infection, subsequent doses 12 minutes apart
[11] = i.v., 2x, total dose 1.8 mg/mouse
[12] = p.o., 1x, total dose 0.8 mg/mouse
[13] = p.o., 2x, total dose 1.6 mg/mouse
[14] = p.o., 3x, total dose 2.4 mg/mouse
[15] = p.o., 4x, total dose 3.2 mg/mouse

## CCC(=O)NC(=O)c1c(F)ccc(OCc2nc3cc(Cl)ccc3s2)c1F [Example 5]
MSSA
  MIC: 2 µg/mL (≈ 4.87 µM)
MRSA
  MIC: 2 µg/mL (≈ 4.87 µM)

## CN1CCC(C(=O)NC(=O)c2c(F)ccc(OCc3nc4cc(Cl)cnc4s3)c2F)CC1 [Example 17]
[1]; [3]
  Survival (%) 24 Hrs: 0%
  Survival (%) 48 Hrs: 0%
  Survival (%) 72 Hrs: 0%
[1]; [4]
  Survival (%) 24 Hrs: 0%
  Survival (%) 48 Hrs: 0%
  Survival (%) 72 Hrs: 0%
[1]; [5]
  Survival (%) 24 Hrs: 0%
  Survival (%) 48 Hrs: 0%
  Survival (%) 72 Hrs: 0%
[1]; [6]
  Survival (%) 24 Hrs: 0%
  Survival (%) 48 Hrs: 0%
  Survival (%) 72 Hrs: 0%
[1]; [7]
  Survival (%) 24 Hrs: 100%
  Survival (%) 48 Hrs: 100%
  Survival (%) 72 Hrs: 100%
[2]; [8]
  Survival (%) 48 Hrs: 50%
  Survival (%) 72 Hrs: 50%
[2]; [9]
  Survival (%) 24 Hrs: 100%
  Survival (%) 48 Hrs: 100%
  Survival (%) 72 Hrs: 100%
[2]; [10]
  Survival (%) 24 Hrs: 100%
  Survival (%) 48 Hrs: 100%
  Survival (%) 72 Hrs: 100%

## CN1CCC(C(=O)NC(=O)c2c(F)ccc(OCc3nc4cc(C(F)(F)F)cnc4s3)c2F)CC1 [Example 44]
[1]; [11]
  Survival (%) 24 Hrs: 100%
  Survival (%) 48 Hrs: 100%
  Survival (%) 72 Hrs: 100%
[1]; [12]
  Survival (%) 24 Hrs: 50%
  Survival (%) 48 Hrs: 50%
  Survival (%) 72 Hrs: 50%
[1]; [13]
  Survival (%) 24 Hrs: 100%
  Survival (%) 48 Hrs: 100%
  Survival (%) 72 Hrs: 100%
[1]; [14]
  Survival (%) 24 Hrs: 100%
  Survival (%) 48 Hrs: 100%
  Survival (%) 72 Hrs: 100%
[1]; [15]
  Survival (%) 24 Hrs: 100%
  Survival (%) 48 Hrs: 100%
  Survival (%) 72 Hrs: 100%

From patent US20250206755A1, “ANTIMICROBIAL AGENTS” (RUTGERS, THE STATE UNIVERSITY OF NEW JERSEY, priority 2012, published 2025)
